Each structure is given as a SMILES string. Structures can show the parent of a compound that is named as a salt. Where two headings read alike, the source gives them in different places.

The values below come from patent publication US20070078434A1, “Indications For Local Transport of Anaesthetic Agents By Electrotransport Devices” (Vyteris, Inc., priority 2005, published 2007).

One series concerns subjects. In words: Study 16: Platform IIA under various treatment conditions. The format is in vivo, human. The conditions noted are these: patches containing lidocaine 10% with and without epinephrine.
Series [1] deals with anesthetized guinea pigs. The conditions noted are these: guinea pig, in vivo.
The conditions of series [2]: codelivered with 300 mg of lidocaine; cited from earlier work.
For series [3] the following is noted: iontophoresis in vitro across human skin; cited from earlier work.
The subject of series [4] is anesthetized guinea pigs. Description: In vivo delivery of radiolabeled drug into anesthetized guinea pigs.

As for `CNCC(O)c1ccc(O)c(O)c1` [epinephrine, 1,2 Beizenediol, 4-[1-hydroxy-2-(methylamino)ethyl]-,(R)—, [R—(R*,R*)]-2,3-dihydroxybutanedioate (1:1) (salt)], the “effect of epinephrine on the anaesthetic effect of lidocaine” value with subjects was “significantly enhanced”. In addition, the “amount delivered per patch” value with anesthetized guinea pigs [1] was 2.4 µg. In series [2], the maximum recommended dose is 150 µg. As for `CCCNC(C)C(=O)Nc1ccccc1C` (stereo not shown) [prilocaine], the “cumulative delivery compared with lidocaine” value in series [3] is listed as “slightly greater delivery”. For the molecule `CCCN(CC)C(CC)C(=O)Nc1c(C)cccc1C` (stereo not shown) [etidocaine], the “cumulative delivery compared with lidocaine” value in series [3] is “slightly greater delivery”. Regarding `CCN(CC)CC(=O)Nc1c(C)cccc1C.Cl` [lidocaine, 2-(Diethylamino)-2′,6′-acetoxylidide mono hydrochloride, monohydrate], the “amount delivered per patch” value in the series on anesthetized guinea pigs [4] was found to be 467 µg.

For `CCN(CC)CCOC(=O)c1ccc(N)cc1` [procaine], the “cumulative delivery compared with lidocaine” value in series [3] was “slightly greater delivery”.
